Results as given in patent US20160089371A1, “Combination of Kinase Inhibitors and Uses Thereof” (INTELLIKINE, LLC, priority 2013, published 2016).

Key:
[1] = system: MDA-MB-361 (PI3Kα/HER2 carcinoma) tumors; assay: In vivo efficacy in xenogenic mouse model of breast cancer; design: species or system nude mice; conditions: 70 mg/kg Pan-PI3K inhibitor; 60 mg/kg compound A
Method: Blood glucose was monitored periodically following administration of treatment.
Treatment of tumors (MDA-MB-361) with compounds was discontinued on Day 30. Tumors were measured every 2-5 days.

[2] = system: PI3 kinase signaling pathway in MDA-MB-361, HCC-1419 and NCI-H1048 cells; assay: Cellular signaling immunoblot in human tumor cell lines; format: cell-based; conditions: single agents; Compound B 5-100 nM, Compound A 1 and 3 μM; 2 or 24 hours
Method: Compound A was synthesized at Intellikine and was supplied as a stock of 10 mM in 100% DMSO and diluted in the respective cell line's growth media.
Prior to treatment, cells were plated at 2×10^5 cells/well in 12-well plates in normal growth media and grown to 80% confluence. Cells were treated for 2 or 24 hours in a CO2 incubator set to 37° C. with normal growth media containing inhibitor diluted in DMSO.
Media was aspirated, cells were washed with 1×PBS, Ice cold 1× Cell Lysis Buffer was prepared from 10× stock and 100 μM 4-(2-Aminoethyl) benzenesulfonyl fluoride hydrochloride (AEBSF) andlmM sodium orthovanadate […] was added. Cells were lysed by adding 1× Cell Lysis Buffer (100 μL per well of 12-well plate of cells). Cells incubated on ice for 20 to 30 minutes to allow complete lysis, and lysates were transferred to microcentrifuge tubes, sonicated for 10 seconds, and subjected to microcentrifugation at 14,000×g for 10 minutes at 4° C. Cleared supernatants were transferred to fresh tubes, and stored at −20° C. for Western blot analysis. […] Molecular weight markers were loaded, the gel electrophoresed at 200V for 40 minutes.
The gels were electrotransferred to nitrocellulose membranes, and incubated in blocking buffer (Tris buffered saline plus 0.5% Tween-20 (TBS/T)+5% bovine serum albumin (BSA)) for 1 hour at room temperature. […]

[3] = system: B cell function; assay: B cell function in vivo, antibody production after TNP-Ficoll immunization; conditions: mice immunized with TNP-Ficoll; 70 mg/kg GDC0941; 30, 60 or 120 mg/kg Compound A; 7 days; FIG. 8
Method: Mice were immunized with TNP-Ficoll and treated with 1) vehicle; 2) 70 mg/kg GDC0941; 3) 30 mg/kg Compound A; 4) 60 mg/kg Compound A; or 5) 120 mg/kg Compound A for 7 days. Antibody production was measured as a percentage of control group that were treated with vehicle.

[4] = system: Akt and S6 phosphorylation; assay: Western blot of PI3K pathway phosphorylation (Akt, S6) in cancer cells; format: cell-based

Nc1nc2cc(-c3ccc4ncc(C(=O)N5CCOCC5)n4c3)ccc2o1 [Compound A]
tumor weight in breast cancer model (FIG. 9 left panel) [1]: reduction in tumor weight
phosphorylation of downstream targets AKT, S6 and 4E-BP1 (Western blot, FIG. 15) [2]: potently inhibited
B cell function in vivo (antibody production, percentage of vehicle control) [3]: not
inhibition of Akt phosphorylation at serine 473 ([4]; FIG. 12A): inhibition of Akt phosphorylation at serine 473
inhibition of the PI3K pathway in cell lines with elevated PI3K α activity ([4]; MDA-MB-361, MDA-MB-453, SKBr3 breast cancer cells, FIG. 11): inhibition of the PI3K pathway
